Measured values taken from PubChem BioAssay (NCI).
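Test compounds were applied to cells in 96-well plates for 48 hours at 5 doses. TGI is the concentration that stops growth completely.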

Experiments:
Assay in all cases: NCI tumour cell line growth inhibition, 48 h
[1] = test system: ACHN renal
[2] = test system: HCT-15 colon
[3] = test system: SNB-19 CNS
[4] = test system: NCI-H522 lung
[5] = test system: OVCAR-3 ovarian
[6] = test system: HOP-62 NSCLC
[7] = test system: SN12C renal
[8] = test system: DMS 114 small cell lung
[9] = test system: DMS 273 small cell lung
[10] = test system: SK-MEL-28 melanoma
[11] = test system: KM12 colon
[12] = test system: UO-31 renal
[13] = test system: K-562 leukemia
[14] = test system: OVCAR-8 ovarian
[15] = test system: SF-539 CNS
[16] = test system: HL-60(TB) leukemia
[17] = test system: HCT-116 colon
[18] = test system: HOP-92 NSCLC
[19] = test system: SF-268 CNS
[20] = test system: TK-10 renal
[21] = test system: NCI-H23 lung
[22] = test system: SW-620 colon
[23] = test system: OVCAR-4 ovarian
[24] = test system: CAKI-1 renal
[25] = test system: LXFL 529 NSCLC
[26] = test system: A549 NSCLC
[27] = test system: SK-MEL-2 melanoma
[28] = test system: KM20L2 colon
[29] = test system: A498 renal
[30] = test system: RXF 393 renal
[31] = test system: MOLT-4 leukemia
[32] = test system: SNB-75 CNS
[33] = test system: COLO 205 colon
[34] = test system: NCI-H226 lung
[35] = test system: MALME-3M melanoma
[36] = test system: HCC-2998 colon
[37] = test system: UACC-257 melanoma
[38] = test system: LOX IMVI melanoma
[39] = test system: M19-MEL melanoma
[40] = test system: HT29 colon
[41] = test system: NCI-H460 lung
[42] = test system: UACC-62 melanoma
[43] = test system: OVCAR-5 ovarian
[44] = test system: SK-OV-3 ovarian
[45] = test system: 786-0 renal
[46] = test system: M14 melanoma
[47] = test system: HOP-18 NSCLC
[48] = test system: SNB-78 CNS
[49] = test system: CCRF-CEM leukemia
[50] = test system: SK-MEL-5 melanoma
[51] = test system: SF-295 CNS
[52] = test system: U251 CNS
[53] = test system: IGROV1 ovarian
[54] = test system: EKVX NSCLC
[55] = test system: RPMI-8226 leukemia

Measured: TGI

O=C1/C(=N\O)C2CCC1C2 (stereo not given)
> 100 µM: all assays above
